Where two headings read alike, the source gives them in different places.
What was measured:
C. perfringens spores [1] = format: cell-based, Clostridium perfringens; details: for induction of spore germination by bile salt in the presence of amino acids: BA pathway; for triggering of spore germination by detergent: even in the presence of excess L-alanine
C. perfringens spores [2] = format: cell-based, Clostridium perfringens; details: for effect of added salt on AA pathway response / effect of added salt on BA germination pathway: potassium phosphate or sodium phosphate buffer; for effect of added salt on AA pathway response / effect of added salt on BA germination pathway / effect of added salt on BA pathway: 150 mM salt; for effect of added salt on BA pathway: spores resuspended in sodium phosphate buffer
C. perfringens strains = format: cell-based, Clostridium perfringens
C. perfringens spores [3] = details: with L-alanine, in place of L-phenylalanine
C. perfringens spores [4] = assay: microbe, parasite or virus in culture; details: Clostridium perfringens, read-out: IC50, inhibition of C. perfringens spore germination
C. perfringens spores [5] = details: spore germination inhibition
[6] = in the presence of theobromine, strains 1936, 1473, 1882

Compound: C[C@H](CCC(=O)NCCS(=O)(=O)O)[C@H]1CC[C@H]2[C@@H]3CC[C@@H]4C[C@H](O)CC[C@]4(C)[C@H]3C[C@H](O)[C@]12C [taurodeoxycholate]
- induction of spore germination by bile salt in the presence of amino acids (C. perfringens spores [1]): induced C. perfringens spore germination

Compound: [Cl-].[Na+] [NaCl]
- effect of added salt on AA pathway response (C. perfringens spores [2]): did not affect
- effect of added salt on BA germination pathway (C. perfringens spores [2]): did not affect

Compound: CCCCCCCCCCCCOS(=O)(=O)[O-].[Na+] [SDS]
- triggering of spore germination by detergent (C. perfringens spores [1]): Neither detergent was able to trigger

Compound: C[C@H](CCC(=O)NCC(=O)O)[C@H]1CC[C@H]2[C@@H]3[C@H](O)C[C@@H]4C[C@H](O)CC[C@]4(C)[C@H]3C[C@H](O)[C@]12C [Glycocholate]
- induction of spore germination by bile salt in the presence of amino acids (C. perfringens spores [1]): induced C. perfringens spore germination

Compound: [Cl-].[K+] [KCl]
- effect of added salt on AA pathway response (C. perfringens spores [2]): did not affect
- effect of added salt on BA pathway (C. perfringens spores [2]): induced the BA pathway

Compound: [Br-].[K+] [KBr]
- effect of added salt on AA pathway response (C. perfringens spores [2]): did not affect
- effect of added salt on BA pathway (C. perfringens spores [2]): induced the BA pathway

Compound: C[C@H](CCC(=O)NCCS(=O)(=O)O)[C@H]1CC[C@H]2[C@@H]3[C@H](O)C[C@@H]4C[C@H](O)CC[C@]4(C)[C@H]3CC[C@]12C [taurochenodeoxycholate]
- induction of spore germination by bile salt in the presence of amino acids (C. perfringens spores [1]): induced C. perfringens spore germination

Compound: OC[C@H]1O[C@H](OC[C@H]2O[C@H](O[C@]3(CO)O[C@H](CO)[C@@H](O)[C@@H]3O)[C@H](O)[C@@H](O)[C@@H]2O)[C@H](O)[C@@H](O)[C@H]1O [raffinose]
- sporulation with the carbon source (C. perfringens strains; 0.5% carbon source in solid medium): preferred carbon source

Compound: deoxycholate
- induction or inhibition of spore germination in the presence of L-alanine (C. perfringens spores [1]; FIG. 3B): did not induce or inhibit

Compound: O=C([O-])O.[K+] [potassium bicarbonate]
- effect of added bicarbonate on germination rate (C. perfringens spores [2]): increased germination rate

Compound: O=C([O-])O.[Na+] [sodium bicarbonate]
- effect of added bicarbonate on germination rate (C. perfringens spores [2]): increased germination rate

Compound: C[C@H](CCC(=O)O)[C@H]1CC[C@H]2[C@@H]3[C@H](O)C[C@@H]4C[C@H](O)CC[C@]4(C)[C@H]3C[C@H](O)[C@]12C [Cholate]
- induction or inhibition of spore germination in the presence of L-alanine (C. perfringens spores [1]): did not induce or inhibit

Compound: [Br-].[Na+] [NaBr]
- effect of added salt on AA pathway response (C. perfringens spores [2]): did not affect
- effect of added salt on BA germination pathway (C. perfringens spores [2]): did not affect

Compound: Cn1cnc2c1c(=O)[nH]c(=O)n2C [theobromine]
- time at which spores could be detected (C. perfringens strains; [6]): two days after plating
- time of maximum sporulation levels (C. perfringens strains; [6]): 5-7 days post-plating
- effect of theobromine on sporulation level (C. perfringens strains; strain 1473): decreased
- Theobromine, effect on sporulation (C. perfringens strains; strain 1473, inoculum BHI, peptone #3): Increases sporulation
- Theobromine, effect on sporulation (C. perfringens strains; strain 1473, inoculum Thioglycollate, peptone #1): Reduces sporulation
- Theobromine, effect on sporulation (C. perfringens strains; strain 1521, inoculum Thioglycollate, peptone #1): Required for sporulation
- effect of theobromine on sporulation level (C. perfringens strains; strain 1882): increased
- Theobromine, effect on sporulation (C. perfringens strains; strain 1882, inoculum BHI, peptone #2): Increases sporulation
- effect of theobromine on sporulation level (C. perfringens strains; strain 1936): remained unchanged
- Theobromine, effect on sporulation (C. perfringens strains; strain 1936, inoculum BHI, peptone #1): No effect on sporulation
- Theobromine, effect on sporulation (C. perfringens strains; strain 4064, inoculum BHI, peptone #1): Required for sporulation
- Theobromine, effect on sporulation (C. perfringens strains; strain 4104, inoculum BHI, peptone #3): Required for sporulation
- Theobromine, effect on sporulation (C. perfringens strains; strain 4104, inoculum Thioglycollate, peptone #3): Required for sporulation
- Theobromine, effect on sporulation (C. perfringens strains; strain 4121, inoculum Thioglycollate, peptone #2): Required for sporulation
- effect on sporulation times (C. perfringens strains; strains 1936, 1473, 1882): reduced sporulation times
- effect of theobromine on sporulation (C. perfringens strains; strains 4104, 4064, 1521, 4121, solid media): only sporulated robustly when theobromine was added

Compound: Triton-X-100
- triggering of spore germination by detergent (C. perfringens spores [1]): Neither detergent was able to trigger

Compound: C[C@H](CCC(=O)O)[C@H]1CC[C@H]2[C@@H]3[C@H](O)C[C@@H]4C[C@H](O)CC[C@]4(C)[C@H]3CC[C@]12C [chenodeoxycholate]
- induction or inhibition of spore germination in the presence of L-alanine (C. perfringens spores [1]; FIG. 3B): did not induce or inhibit

Compound: N[C@@H](Cc1ccc(O)cc1)C(=O)O [L-tyrosine]
- germination rate slower than with L-phenylalanine (C. perfringens spores [3]): more than 50%

Compound: CSc1nc2ccccc2s1 [2-MTB, 2-methylthiobenzothiazole]
- IC50 (C. perfringens spores [4]): 74 µM

Compound: COc1nc2ccccc2s1 [MOB, 2-methoxy benzothiazole]
- IC50 (C. perfringens spores [4]): 98 µM
- inhibitory concentration compared with other analogs (C. perfringens spores [5]): approximately ten times lower than other analogs

Source: patent US12144800B2 (priority 2015, dated 2024)
